We go through one compound from ChEMBL document CHEMBL1152866, “Modulation of gene expression via disruption of NF-kappaB signaling by a bacterial small molecule” (Science, 2008).

This experiment has as its system BMDM. Briefly: Inhibition of LPS-induced IP-10 mRNA expression in mouse BMDM up to 3 hrs by Northern blot analysis. It counts as functional, cell-based.

Regarding `CCCCCCCCCC(=O)CC(=O)N[C@H]1CCOC1=O`, the Activity entry is “Dose-dependent effect”.
